Experimental data from article PMC6326797 (Nucleic Acids Research, 2018).

Molecular target: T1, RNase L (Homo sapiens, UniProt Q05823)
T1 sequence (Q05823 1-741): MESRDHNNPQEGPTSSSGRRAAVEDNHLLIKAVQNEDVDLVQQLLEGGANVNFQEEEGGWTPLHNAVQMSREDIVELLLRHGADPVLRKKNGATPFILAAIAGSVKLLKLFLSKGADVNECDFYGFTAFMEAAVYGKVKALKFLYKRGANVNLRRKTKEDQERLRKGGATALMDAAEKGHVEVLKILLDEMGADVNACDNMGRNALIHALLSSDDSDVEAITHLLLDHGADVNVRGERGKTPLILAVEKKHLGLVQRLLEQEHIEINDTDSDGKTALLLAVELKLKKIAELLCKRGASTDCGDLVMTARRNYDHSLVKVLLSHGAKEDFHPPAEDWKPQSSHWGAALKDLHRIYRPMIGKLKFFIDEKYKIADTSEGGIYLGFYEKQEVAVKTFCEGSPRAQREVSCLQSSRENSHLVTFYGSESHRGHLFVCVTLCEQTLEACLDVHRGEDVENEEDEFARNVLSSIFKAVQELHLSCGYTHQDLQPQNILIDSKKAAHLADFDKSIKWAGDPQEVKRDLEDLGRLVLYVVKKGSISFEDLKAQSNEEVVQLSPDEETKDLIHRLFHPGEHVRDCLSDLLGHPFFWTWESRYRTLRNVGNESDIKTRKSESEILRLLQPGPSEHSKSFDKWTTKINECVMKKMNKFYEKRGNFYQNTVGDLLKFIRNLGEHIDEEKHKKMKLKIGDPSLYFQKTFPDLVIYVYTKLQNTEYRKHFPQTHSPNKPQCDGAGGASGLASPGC
Experiment: FRET RNA cleavage assay
Format: biochemical

For `COc1cc(/C=C/C(=O)CC(=O)/C=C/c2ccc(O)c(OC)c2)ccc1O` [curcumin], the IC50 was ~30 µM.
